This note sets out measurements from patent US20130310374A1, “Substituted Imidazoquinoline Derivatives” (PIRAMAL ENTERPRISES LIMITED`, priority 2010, published 2013).

One data set relates to MDA MB 468. In words: Cytotoxicity propidium iodide assay, MDA MB 468. To be noted: Homo sapiens; MDA MB 468 (breast), 48 hours treatment; read-out: IC50 Values in μM, C3b. In kind it is cell-based. Summed up:
(§1)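 Viability is measured by propidium iodide fluorescence in cells seeded at 3000/well and treated for 48 h. IC50 is obtained from percent viability normalised to untreated wells.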

A further data set concerns MCF7. The data set can be described thus: Cytotoxicity propidium iodide assay, MCF7. In kind it is cell-based. To be noted: Homo sapiens; MCF7 (breast), 48 hours treatment; read-out: IC50 Values in μM, C3d. Summed up: as §1
The next data set has as its system PANC 1. The data set can be described thus: Cytotoxicity propidium iodide assay, PANC 1. In kind it is cell-based. The conditions noted are these: Homo sapiens; PANC 1 (pancreatic), 48 hours treatment; read-out: IC50 Values in μM, C4a. Summed up:
as §1

A further data set deals with KU812/SR. In words: Cytotoxicity propidium iodide assay, KU812/SR. The data set is classed as cell-based. The conditions noted are these: Homo sapiens; KU812/SR (CML), 48 hours treatment; read-out: IC50 Values in μM, C6c. Summed up:
as §1

A further data set concerns PC3. In words: Cytotoxicity propidium iodide assay, PC3. In kind it is cell-based, human. The conditions noted are these: Homo sapiens, PC-3; PC3 (prostate), 48 hours treatment; read-out: IC50 Values in μM, C2a. Summed up:
as §1

The subject of a further data set is A2780. The data set can be described thus: Cytotoxicity propidium iodide assay, A2780. The data set is classed as cell-based. The conditions noted are these: Homo sapiens; A2780 (ovarian), 48 hours treatment; read-out: IC50 Values in μM, C1a. Summed up:
as §1

The test system of the next data set is MDA MB 231. In words: Cytotoxicity propidium iodide assay, MDA MB 231. In kind it is cell-based. To be noted: Homo sapiens; MDA MB 231 (breast), 48 hours treatment; read-out: IC50 Values in μM, C3a.
A further data set deals with T315I. In words: Cytotoxicity propidium iodide assay, T315I. In kind it is cell-based. To be noted: T315I (CML), 48 hours treatment; read-out: IC50 Values in μM, C6b. Here is the method:
(§2) The assay was designed as in the reference, Anticancer Drugs, 2002, 13, 1-8, the disclosure of which is incorporated herein by reference for the teaching of the assay.
(§3) Cells from cell lines (ATCC) as mentioned in the table given below were seeded at a density of 3000 cells/well in a white opaque 96-well plate. Following incubation at 37° C./5% CO2 for a period of 18-24 hours, the cells were treated with various concentrations (stock solution was prepared in DMSO and subsequent dilutions were made in media as per ATCC guidelines) of the compounds of the present invention for a period of 48 hours. At the end of treatment, the culture medium was discarded, the cells were washed with 1×PBS and 200 μL of […] propidium iodide was added to each well. The plates were frozen at 70° C. overnight. For analysis, the plates were warmed to RT, allowed to thaw and were read in PoleStar fluorimeter with the fluorescence setting. The percentage of viable cells in the non-treated set of wells was considered to be 100 and the percentage viability following treatment was calculated accordingly. IC50 values were calculated from graphs plotted using these percentages. IC50 values for certain compounds of present invention are depicted in Table 1 and % Inhibition of certain compounds of present invention are depicted in Table 2.

The next data set deals with BxPC3. The data set can be described thus: Cytotoxicity propidium iodide assay, BxPC3. The conditions noted are these: Homo sapiens, BXPC-3; BxPC3 (pancreatic), 48 hours treatment; read-out: IC50 Values in μM, C4c. In kind it is cell-based. Summed up: as §1
In a further data set the test system is hPBMC. The data set can be described thus: MTS toxicity assay in parallel to Con-A-induced IFN-γ assay. The data set is classed as cell-based, human. To be noted: Con-A experiment. The protocol: (§4) Peripheral blood was collected from normal healthy volunteers after informed consent. Peripheral blood mononuclear cells (hPBMC) were harvested using Ficoll-Hypaque density gradient centrifugation (1.077 g/mL; Sigma Aldrich). hPBMCs were resuspended in RPMI 1640 culture medium (Gibco BRL, Pasley, UK) containing 10% FCS, 100 U/mL penicillin (Sigma Chemical Co. St Louis, Mo.) and […] streptomycin (Sigma Chemical Co. St Louis, Mo.) at 1×10^6 cells/mL. 1×10^5 hPBMCs/well were pre-treated with 0.025 μM of compounds of present invention or 0.5% DMSO (vehicle control) for 30 minutes at 37° C. Subsequently, these cells were stimulated with 1 μg/mL concanavalin A (Sigma Chemical Co., St. Louis, Mo.). Following 18 hours of incubation at 37° C., supernatants were collected and stored at −70° C. until assayed for human IFN-γ by ELISA as described by the manufacturer (OptiEIA ELISA sets, BD BioSciences). In every experiment, cyclosporin (1 μM) was used as a positive control for inhibiting induced IFN-γ production. In all experiments, the toxicity of test compounds was ascertained, in parallel, using the MTS (3-(4,5-dimethylthiazol-2-yl)-5-(3-carboxymethoxyphenyl)-2-(4-sulfonyl)-2H-tetrazolium) assay as described in Am. J. Physiol. Cell Physiol., 2003, 285, C813-C822.

The next data set relates to IFN-γ. The data set can be described thus: Con-A-induced IFN-γ production from hPBMC. In kind it is cell-based. The conditions noted are these: Homo sapiens, concanavalin A 1 μg/mL, 18 hours. The protocol: Con-A-Induced IFN-γ Production from hPBMC
as §4

The test system of another data set is LN18. The data set can be described thus: Cytotoxicity propidium iodide assay, LN18. The data set is classed as cell-based. The conditions noted are these: Homo sapiens, LN-18; LN18 (glioblastoma), 48 hours treatment; read-out: IC50 Values in μM, C5b. Here is the method: as §2, §3
The test system of the next data set is LN229. In words: Cytotoxicity propidium iodide assay, LN229. The data set is classed as cell-based. The conditions noted are these: Homo sapiens, LN-229; LN229 (glioblastoma), 48 hours treatment; read-out: IC50 Values in μM, C5a. Here is the method: as §2, §3
The next data set deals with U 87 MG. In words: Cytotoxicity propidium iodide assay, U 87 MG. In kind it is cell-based. To be noted: Homo sapiens; U 87 MG (glioblastoma), 48 hours treatment; read-out: IC50 Values in μM, C5c. The protocol: as §2
as §3, with “The plates were frozen at 70° C. overnight.” left out

Regarding `CC(C)(C#N)c1ccc(-n2c(=O)n(CC#N)c3cnc4ccc(-c5cnc(N)c(C(F)(F)F)c5)cc4c32)cn1` [Example 16, 2-(5-(8-(6-Amino-5-(trifluoromethyl)pyridin-3-yl)-3-(cyanomethyl)-2-oxo-2,3-dihydro-1H-imidazo[4,5-c]quinolin-1-yl)pyridin-2-yl)-2-methylpropanenitrile], the half-inhibitory concentration (IC50) with MDA MB 468 amounted to 0.013 µM; in the data set with MCF7, 0.03 µM; in the data set on PANC 1, 0.017 µM; in the data set on KU812/SR, 0.19 µM; in the data set with PC3 it was 0.025 µM; in the data set on A2780 it was 0.013 µM. The IC50 in the data set on MDA MB 231 was found to be 0.07 µM; in the data set with T315I, 2.13 µM; in the data set on BxPC3 it was 0.008 µM; in the data set on LN18, 0.44 µM; with LN229 it was 0.65 µM; with U 87 MG it was 7.75 µM. For the same compound, the “% Toxicity at 0.025 μM” value in the data set with hPBMC came out at 3%. This compound also came in with an inhibition at 0.025 µM in the data set on IFN-γ of 31%.

Take `COc1ccc(-n2c(=O)n(C)c3cnc4ccc(-c5cnc(N)c(C(F)(F)F)c5)cc4c32)cn1` [Example 19, 8-(6-Amino-5-(trifluoromethyl)pyridin-3-yl)-1-(6-methoxypyridin-3-yl)-3-methyl-1H-imidazo[4,5-c]quinolin-2(3H)-one]: the IC50 with MDA MB 468 is 0.18 µM; with MCF7, 0.054 µM; with PANC 1, 0.026 µM; with KU812/SR it was 0.06 µM; in the data set on PC3, 0.006 µM; with A2780, < 0.01 µM. Also, the concentration for half-maximal inhibition (IC50) came to 0.17 µM in the data set on MDA MB 231; 0.049 µM in the data set on T315I; 0.016 µM in the data set on BxPC3; 0.096 µM with LN18; 0.096 µM in the data set with LN229; 3.88 µM in the data set with U 87 MG. The “% Toxicity at 0.025 μM” value in the data set on hPBMC is listed as 18%. In the data set with IFN-γ, this compound gave an inhibition at 0.025 µM of 93%.

For the compound `Cn1c(=O)n(-c2ccc(C(C)(C)C#N)nc2)c2c3cc(-c4cnc5ccccc5c4)ccc3ncc21` [Example 2, 2-Methyl-2-(5-(3-methyl-2-oxo-8-(quinolin-3-yl)-2,3-dihydro-1H-imidazo[4,5-c]quinolin-1-yl)pyridin-2-yl)propanenitrile], the IC50 in the data set on MDA MB 468 came out at 0.3 µM; with MCF7 it was 0.09 µM; in the data set with PANC 1, 0.1 µM; with PC3 it was 0.068 µM; in the data set on A2780 it was 0.024 µM; in the data set with MDA MB 231, 0.07 µM. Further, the IC50 with BxPC3 turned out to be 0.04 µM; in the data set on LN18 it was 0.33 µM; in the data set with LN229, 0.55 µM. Besides, the “% Toxicity at 0.025 μM” value in the data set on hPBMC was determined as 12%. Moreover, 0.025 µM produced 58% inhibition with IFN-γ.

As to `Cn1c(=O)n(-c2ccc(C(C)(C)C#N)nc2)c2c3cc(-c4cnc(N)c(C(F)(F)F)c4)ccc3ncc21` [Example 3, 2-(5-(8-(6-Amino-5-(trifluoromethyl)pyridin-3-yl)-3-methyl-2-oxo-2,3-dihydro-1H-imidazo[4,5-c]quinolin-1-yl)pyridin-2-yl)-2-methylpropanenitrile], the IC50 was 0.06 µM in the data set with MDA MB 468; 0.026 µM in the data set with MCF7; 0.01 µM in the data set with PANC 1; 0.19 µM in the data set on KU812/SR; 0.005 µM with PC3; < 0.005 µM with A2780. The IC50 with MDA MB 231 amounted to 0.014 µM; in the data set on T315I, 0.32 µM; in the data set with BxPC3 it was 0.01 µM; in the data set on LN18 it was 0.144 µM; with LN229 it was 0.056 µM. Moreover, the “% Toxicity at 0.025 μM” value in the data set on hPBMC came out at 21%. Besides, at 0.025 µM the inhibition in the data set on IFN-γ was 98%.
